Experimental data: US4751302A, “Indazole derivatives” (priority 1982, dated 1988)

Tests used:
[1] = system: Carrageenin edema in rat's paw; assay: Carrageenin Edema Test in Rat's Paw (anti-inflammatory activity, Table 1); format: in vivo; conditions: 100 mg/kg oral, hydrochloride, rat
Experimental: An anti-inflammatory activity was measured by orally administering 100 mg/kg of a hydrochloride of the indazole derivative of this invention as set forth in Table 1 to an animal in accordance with the standard method of Carrageenin Edema Test in Rat's Paw described in C. A. Winter et al., Proc. Soc. Exp. Biol. Med., 111, 544 (1962).

[2] = in vivo; conditions: mouse, ip, intraperitoneal, hydrochloride, male ddy mice

Row | SMILES | inhibition in vivo at 100 mg/kg [1] | LD50 [2]
1 | CCN(CC)CCCn1nc(N)c2cc(N)ccc21 [(5), 1-(3-Diethylaminopropyl)-3,5-diaminoindazole] | 59% | 311 mg/kg
2 | Nc1nn(CCCN2CCC(Cl)CC2)c2ccc(O)cc12 [(40), 1-[3-(4-Chloropiperidino)propyl]-3-amino-5-hydroxyindazole] | 64% | 335 mg/kg
3 | CCN(CC)CCCNc1n[nH]c2cccc(Cl)c12 [(45), 3-(3-Diethylaminopropylamino)-4-chloroindazole] | 61% | 271 mg/kg
4 | CC1CCCC(C)N1CCCNc1nn(CCCN2CCOCC2)c2ccc(O)cc12 (stereo not drawn) [(146), 1-(3-Morpholinopropyl)-3-[3-(2,6-dimethylpiperidino)propylamino]-5-hydroxyindazole] | 32% | 198 mg/kg
5 | CCN(CC)CCCNc1n[nH]c2ccc(N)cc12 [(49), 3-(3-Diethylaminopropylamino)-5-aminoindazole] | 55% | 244 mg/kg
6 | CN1CCN(CCCNc2nn(CCCN3CCCC3)c3ccc(O)cc23)CC1 [(144), 1-(3-Pyrrolidinopropyl)-3-[3-(4-methylpiperazino)propylamino]-5-hydroxyindazole] | 26% | 281 mg/kg
7 | Clc1ccc2c(c1)c(NCCCCCCN1CCCCC1)nn2CCCN1CCCCC1 [(102), 1-(3-Piperidinopropyl)-3-(6-piperidinohexylamino)-5-chloroindazole] | 22% | 255 mg/kg
8 | CCN(CC)CCCn1nc(NCCCCCCN2CCCCC2)c2cc(O)ccc21 [(127), 1-(3-Diethylaminopropyl)-3-(6-piperidinohexylamino)-5-hydroxyindazole] | 21% | 198 mg/kg
9 | Oc1ccc2c(c1)c(NCCCN1CCC(O)CC1)nn2CCCN1CCOCC1 [(148), 1-(3-Morpholinopropyl)-3-[3-(4-hydroxypiperidino)propylamino]-5-hydroxyindazole] | 30% | 245 mg/kg
10 | Clc1ccc2c(c1)c(NCCCN1CCCCCC1)nn2CCCN1CCCC1 [(112), 1-(3-Pyrrolidinopropyl)-3-(3-homopiperidinopropylamino)-5-chloroindazole] | 29% | 325 mg/kg
11 | CCN(CC)CCCn1nc(N)c2cc(N)cc(N)c21 [(29), 1-(3-Diethylaminopropyl)-3,5,7-triaminoindazole] | 56% | 104 mg/kg
12 | CC(CCn1nc(NCCCN2CCCCC2)c2cc(O)ccc21)N(C)C (stereo not drawn) [(139), 1-(3-Dimethylaminobutyl)-3-(3-piperidinopropylamino)-5-hydroxyindazole] | 28% | 249 mg/kg
13 | Nc1nn(CCCCCCN2CCCCC2)c2ccc(Cl)cc12 [(12), 1-(6-Piperidinohexyl)-3-amino-5-chloroindazole] | 28% | 337 mg/kg
14 | Nc1n[nH]c2c(O)cccc12 [(164), 3-Amino-7-hydroxyindazole] | 42% | 231 mg/kg
15 | CC1CCCC(C)N1CCCNc1nn(CCCN2CCOCC2)c2ccc(Cl)cc12 (stereo not drawn) [(116), 1-(3-Morpholinopropyl)-3-[3-(2,6-dimethylpiperidino)propylamino]-5-chloroindazole] | 33% | 311 mg/kg
16 | CCN(CC)CCCn1nc(NCCC(C)N2CCCCC2)c2cc(O)ccc21 (stereo not drawn) [(129), 1-(3-Diethylaminopropyl)-3-(3-piperidinobutylamino)-5-hydroxyindazole] | 27% | 240 mg/kg
17 | CCN(CC)CCCNc1nn(CCCN2CCOCC2)c2ccc(O)cc12 [(145), 1-(3-Morpholinopropyl)-3-(3-diethylaminopropylamino)-5-hydroxyindazole] | 30% | 211 mg/kg
18 | CCN(CC)CCCNc1nn(CCCN(CC)CC)c2ccc(O)cc12 [(120), 1-(3-Diethylaminopropyl)-3-(3-diethylaminopropylamino)-5-hydroxyindazole] | 28% | 269 mg/kg
